Data taken from PubChem BioAssay AID2060894 (Molecular Pharmacology Branch, DTP, NCI, 2025).

System: K12877-001-R-J1-PDC complex spheroid viability
Test: Anticancer human tumor K12877-001-R-J1-PDC patient-derived lung adenocarcinoma cell line growth inhibition [RAS]
Conditions: for IC50: curve of first compound; for viability, T/C: stronger effect = lower value
Source text: RAS pathway inhibitors in Combinations in Complex Spheroids
A high-throughput screen of multi-cell type tumor spheroids was designed to identify active combinations of RAS pathway inhibitors and targeted small molecules. Complex spheroids include a stromal component modeled by human endothelial cells (HUVEC) and fibroblasts modeled by human mesenchymal stem cells (MSCs). The concentration ranges selected for each drug and investigational agent were based upon clinically achievable concentrations if the clinical Cmax of the agent was known.
Compounds. The drugs and investigational agents: abemaciclib (NSC768073), cobimetinib (NSC768068), divarasib (GDC6063, NSC841802), docetaxel (NSC628503), GDC-1971 (RLY-1971, NSC841576), gemcitabine (NSC613327), inavolisib (NSC800729), ipatasertib (NSC767898), KB-0742 (NSC834161), MRTX-1133 (NSC836407), osimertinib (NSC779217), RMC-4630 (NSC839698), RMC-6236 (NSC851965), RMC-6291 (NSC852671), Ro-3306 (NSC812927), sapanisertib (NSC764658), SN-38 (NSC673596), staurosporine (NSC755774), SY5609 (NSC837396), and tovorafenib (DAY101, NSC766906), were obtained from the National Cancer Institute (NCI) Developmental Therapeutics Program Chemical Repository. The FDA-approved anticancer drug set is available from the NCI Developmental Therapeutics Program. […] The stock solutions were prepared in dimethyl sulfoxide (DMSO, Sigma-Aldrich, St. Louis, MO, cat. D2650) at 800-fold the tested concentration and stored at -70 degrees C prior to their use. All drugs and investigational agents were tested over a range starting from a high concentration at or near the clinical Cmax and decreasing in half-log increments. If the clinical Cmax for an agent had not been determined, the highest concentration tested was 10 microM.
Cell Culture. All cells were maintained in an incubator at 37 degrees C and 5% CO2 with 95% humidity. The PDC lines were cultured according to standard operating procedures established by the NCI PDMR. All PDCs were thawed and cultured in Matrigel-coated flasks prepared with a working solution of 1X Ham's F-12 nutrient mix, without supplementation (Invitrogen, Waltham, MA, cat. 11765054), 100 U/mL penicillin-streptomycin (Invitrogen, cat. 15140122), and 2.5% Matrigel (Corning Inc., Corning, NY, cat. 354248) for the first three passages. The 362531-283-R-J2-PDC and 782815-120-R-J1-PDC lines were cultured in 6C/Colon 1B media, which includes advanced DMEM/F-12 (Thermo Fisher Scientific, cat. 12634028), 10 mM HEPES (Thermo Fisher Scientific, cat. 15630080), 1X GlutaMAX supplement (Thermo Fisher Scientific, cat. 35050061), 0.1 mg/mL primocin (InvivoGen, San Diego, CA, cat. ant-pm-2), 10% defined fetal bovine serum, heat inactivated (HyClone Laboratories Inc., Logan, UT, cat. SH30070.03HI), 50% L-WRN conditioned media (ATCC, cat. CRL-3276), 1.25 mM N-Acetyl-L-cysteine (Sigma-Aldrich, cat. A9165), 10 mM nicotinamide (Sigma-Aldrich, cat. N0636), 1X B-27 supplement (Thermo Fisher Scientific, cat. 17504044), 1X N-2 supplement (Thermo Fisher Scientific, cat. 17502048), 50 ng/mL human EGF (Thermo Fisher Scientific, cat. PHG0311), and 10 microM Y-27632 dihydrochloride (Tocris Bioscience, cat. 1254). The K12877-001-R-J1-PDC line was cultured in 6I media, which includes all 6C/Colon 1B media plus 10 ng/mL human FGF-10 (PeproTech, cat. 100-26), 1 ng/mL human FGF-2 (PeproTech, cat. 100-18B), 1 µM prostaglandin E2 (Tocris Bioscience, cat. 2296), […] hydrocortisone (Sigma-Aldrich, cat. H4001), and […] bovine insulin (Sigma-Aldrich, cat. I6634). The K86415-001-R-J1-PDC line was cultured in 6D media, which includes all 6C/Colon 1B media components minus the L-WRN conditioned media. The 485176-168-R4-J1-PDC was cultured in PANC media, which includes all 6C/Colon 1B media plus 100 ng/mL human FGF-10 (PeproTech, cat. 100-26), 500 nM SB-431542 (Selleckchem, cat. S1067), and 10 nM gastrin (Tocris Bioscience, cat. 3006). […]

[1] = second compound 0.0316 µM, first compound 0.00316 µM
[2] = second compound 0.0316 µM, first compound 0.01 µM
[3] = second compound 0.0316 µM, first compound 0.0316 µM
[4] = second compound 0.0316 µM, first compound 0.1 µM
[5] = second compound 0.0316 µM, first compound 0.316 µM
[6] = second compound 0.0316 µM, first compound 1 µM
[7] = second compound 0.1 µM, first compound 0.00316 µM
[8] = second compound 0.1 µM, first compound 0.01 µM
[9] = second compound 0.1 µM, first compound 0.0316 µM
[10] = second compound 0.1 µM, first compound 0.1 µM
[11] = second compound 0.1 µM, first compound 0.316 µM
[12] = second compound 0.1 µM, first compound 1 µM
[13] = second compound 0.316 µM, first compound 0.00316 µM
[14] = second compound 0.316 µM, first compound 0.01 µM
[15] = second compound 0.316 µM, first compound 0.0316 µM
[16] = second compound 0.316 µM, first compound 0.1 µM
[17] = second compound 0.316 µM, first compound 0.316 µM
[18] = second compound 0.316 µM, first compound 1 µM
[19] = second compound 1 µM, first compound 0.00316 µM
[20] = second compound 1 µM, first compound 0.01 µM
[21] = second compound 1 µM, first compound 0.0316 µM
[22] = second compound 1 µM, first compound 0.1 µM
[23] = second compound 1 µM, first compound 0.316 µM
[24] = second compound 1 µM, first compound 1 µM
[25] = second compound 3.16 µM, first compound 0.00316 µM
[26] = second compound 3.16 µM, first compound 0.01 µM
[27] = second compound 3.16 µM, first compound 0.0316 µM
[28] = second compound 3.16 µM, first compound 0.1 µM
[29] = second compound 3.16 µM, first compound 0.316 µM
[30] = second compound 3.16 µM, first compound 1 µM
[31] = second compound 10 µM, first compound 0.00316 µM
[32] = second compound 10 µM, first compound 0.01 µM
[33] = second compound 10 µM, first compound 0.0316 µM
[34] = second compound 10 µM, first compound 0.1 µM
[35] = second compound 10 µM, first compound 0.316 µM
[36] = second compound 10 µM, first compound 1 µM
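Further: spheroids exposed to agents for one week before readout.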

For C=CC(=O)Nc1cc(Nc2nccc(-c3cn(C)c4ccccc34)n2)c(OC)cc1N(C)CCN(C)C + C#Cc1c(F)ccc2cc(O)cc(-c3ncc4c(N5CC6CCC(C5)N6)nc(OCC56CCCN5CC(F)C6)nc4c3F)c12, the IC50 (second compound 0.0316 µM) was over 1000 nM, the IC50 (second compound 0.1 µM) was over 1000 nM and the IC50 (second compound 0.316 µM) was over 1000 nM. The IC50 (second compound 1 µM) was over 1000 nM, the IC50 (second compound 3.16 µM) was over 1000 nM and the IC50 (second compound 10 µM) was over 1000 nM. The viability, T/C [1] was 95.4%, the viability, T/C [2] was 107% and the viability, T/C [3] was 108%. The viability, T/C [4] was 106%, the viability, T/C [5] was 113% and the viability, T/C [6] was 94.3%. The viability, T/C [7] was 108%, the viability, T/C [8] was 102% and the viability, T/C [9] was 102%. It also gave a viability, T/C [10] of 102%, a viability, T/C [11] of 119% and a viability, T/C [12] of 97.7%. The viability, T/C [13] was 103%, the viability, T/C [14] was 108% and the viability, T/C [15] was 106%. It also gave a viability, T/C [16] of 106%, a viability, T/C [17] of 108% and a viability, T/C [18] of 102%. It also gave a viability, T/C [19] of 105%, a viability, T/C [20] of 99.4% and a viability, T/C [21] of 101%. For the same compound, the viability, T/C [22] was 115%, the viability, T/C [23] was 101% and the viability, T/C [24] was 95.3%. For the same compound, the viability, T/C [25] was 107%, the viability, T/C [26] was 100% and the viability, T/C [27] was 106%. It also gave a viability, T/C [28] of 102%, a viability, T/C [29] of 87.5% and a viability, T/C [30] of 95%. The viability, T/C [31] was 106%, the viability, T/C [32] was 95.1% and the viability, T/C [33] was 89.1%. For the same compound, the viability, T/C [34] was 94%, the viability, T/C [35] was 81.4% and the viability, T/C [36] was 79.2%.

CC(Nc1ccc2c(c1)OCCn1cc(N3C(=O)OCC3C(F)F)nc1-2)C(N)=O (stereo unspecified) + C#Cc1c(F)ccc2cc(O)cc(-c3ncc4c(N5CC6CCC(C5)N6)nc(OCC56CCCN5CC(F)C6)nc4c3F)c12 gave an IC50 (second compound 0.0316 µM) of 4900 nM, an IC50 (second compound 0.1 µM) of 3940 nM and an IC50 (second compound 0.316 µM) of 4320 nM. The IC50 (second compound 1 µM) was 4490 nM, the IC50 (second compound 3.16 µM) was 4630 nM and the IC50 (second compound 10 µM) was 2910 nM. The viability, T/C [3] was 97.5%, the viability, T/C [4] was 88.9% and the viability, T/C [5] was 80.2%. For the same compound, the viability, T/C [6] was 69.6%, the viability, T/C (second compound 0.0316 µM, first compound 3.16 µM) was 60.4% and the viability, T/C (second compound 0.0316 µM, first compound 10 µM) was 37.4%. The viability, T/C [9] was 107%, the viability, T/C [10] was 82.7% and the viability, T/C [11] was 84.6%. For the same compound, the viability, T/C [12] was 62.7%, the viability, T/C (second compound 0.1 µM, first compound 3.16 µM) was 56.7% and the viability, T/C (second compound 0.1 µM, first compound 10 µM) was 37%. The viability, T/C [15] was 110%, the viability, T/C [16] was 88.9% and the viability, T/C [17] was 73.9%. It also gave a viability, T/C [18] of 71.2%, a viability, T/C (second compound 0.316 µM, first compound 3.16 µM) of 55.1% and a viability, T/C (second compound 0.316 µM, first compound 10 µM) of 38.8%. For the same compound, the viability, T/C [21] was 96.3%, the viability, T/C [22] was 90.3% and the viability, T/C [23] was 78.5%. It also gave a viability, T/C [24] of 64.5%, a viability, T/C (second compound 1 µM, first compound 3.16 µM) of 60.3% and a viability, T/C (second compound 1 µM, first compound 10 µM) of 37%. The viability, T/C [27] was 103%, the viability, T/C [28] was 89.4% and the viability, T/C [29] was 79.6%. It also gave a viability, T/C [30] of 65.1%, a viability, T/C (second compound 3.16 µM, first compound 3.16 µM) of 64.8% and a viability, T/C (second compound 3.16 µM, first compound 10 µM) of 35.2%. The viability, T/C [33] was 99.5%, the viability, T/C [34] was 75.7% and the viability, T/C [35] was 68.8%. The viability, T/C [36] was 63%, the viability, T/C (second compound 10 µM, first compound 3.16 µM) was 66.5% and the viability, T/C (second compound 10 µM, first compound 10 µM) was 23.8%.

Compound O=C(c1ccc(F)c(F)c1Nc1ccc(I)cc1F)N1CC(O)([C@@H]2CCCCN2)C1 + C#Cc1c(F)ccc2cc(O)cc(-c3ncc4c(N5CC6CCC(C5)N6)nc(OCC56CCCN5CC(F)C6)nc4c3F)c12 has an IC50 (second compound 0.0316 µM) of over 1000 nM, an IC50 (second compound 0.1 µM) of over 1000 nM and an IC50 (second compound 0.316 µM) of over 1000 nM. For the same compound, the IC50 (second compound 1 µM) was over 1000 nM, the IC50 (second compound 3.16 µM) was over 1000 nM and the IC50 (second compound 10 µM) was over 1000 nM. The viability, T/C [1] was 119%, the viability, T/C [2] was 102% and the viability, T/C [3] was 102%. For the same compound, the viability, T/C [4] was 81.9%, the viability, T/C [5] was 77.9% and the viability, T/C [6] was 58%. It also gave a viability, T/C [7] of 110%, a viability, T/C [8] of 107% and a viability, T/C [9] of 91.5%. The viability, T/C [10] was 92.8%, the viability, T/C [11] was 82.3% and the viability, T/C [12] was 57.1%. It also gave a viability, T/C [13] of 108%, a viability, T/C [14] of 104% and a viability, T/C [15] of 94.9%. The viability, T/C [16] was 84.7%, the viability, T/C [17] was 74% and the viability, T/C [18] was 62.9%. It also gave a viability, T/C [19] of 105%, a viability, T/C [20] of 116% and a viability, T/C [21] of 87.9%. For the same compound, the viability, T/C [22] was 93.7%, the viability, T/C [23] was 77.7% and the viability, T/C [24] was 58.1%. For the same compound, the viability, T/C [25] was 110%, the viability, T/C [26] was 103% and the viability, T/C [27] was 92.8%. For the same compound, the viability, T/C [28] was 86.5%, the viability, T/C [29] was 75.7% and the viability, T/C [30] was 62.9%. It also gave a viability, T/C [31] of 102%, a viability, T/C [32] of 84.4% and a viability, T/C [33] of 82.8%. The viability, T/C [34] was 85.6%, the viability, T/C [35] was 78.9% and the viability, T/C [36] was 63.8%.
